Experimental data: patent US10617675B2, “Hepatitis C virus inhibitors” (BRISTOL-MYERS SQUIBB COMPANY, priority 2015, dated 2020)
Like-named read-outs stand apart in the source and are kept apart here.

What was measured:
HCV = assay: Relative (synergistic) activity of separated diastereomers; type: cell-based, Hepatitis C virus; settings: comparison within the set of three diastereomers; first eluting isomer
[1] = tested on: HCV genotype-1a variant with glutamine 30 changed to glutamate in the NS5A protein; type: cell-based, Hepatitis C virus; settings: genotype-1a Q30E; BMS-790052 titrated with 200 nM P-55 versus singly
Excerpt: The NS5A synergistic inhibitory effect of test compounds can be determined using various amounts of an NS5A-targeting compound with titration of a second compound of interest. […] The test compound can be chosen from compounds listed above or from others present in the literature.

[2] = tested on: HCV genotype-1a variant with glutamine 30 changed to glutamate in the NS5A protein; settings: genotype-1a Q30E NS5A variant, cited from earlier work

Structure (SMILES)	activity relative to the other separated diastereomers (HCV)	reciprocal synergistic inhibitory effect for the combination [1]	EC50 ([2]; P-55 fixed at 200 nM, read-out: EC50 of BMS-790052 in the presence of a fixed amount of P-55)	EC50 ([2]; single agent, read-out: EC50, compound titrated singly)
CN(C)C(=O)OC(C)(C(=O)N[C@H](c1ncc(-c2ccc(-c3ccc(-c4cnc([C@@H](NC(=O)C(C)(OC(=O)N(C)C)C(C)(C)CF)C(C)(C)C)[nH]4)cc3)cc2)[nH]1)C(C)(C)C)C(C)(C)CF (single isomer, unassigned) [Example Y1]	most active of the set			
CC(C)(C)[C@H](NC(=O)C1(CO)OC2CCC1CC2)c1nc(-c2ccc(-c3ccc(-c4c[nH]c([C@@H](NC(=O)C5(CO)OC6CCC5CC6)C(C)(C)C)n4)cc3)cc2)c[nH]1 (single isomer, unassigned) [Example Y14]	most active isomer			
COC(=O)N[C@H](C(=O)N1CCC[C@H]1c1nc(-c2ccc(-c3ccc(-c4c[nH]c([C@@H]5CCCN5C(=O)[C@@H](NC(=O)OC)C(C)C)n4)cc3)cc2)c[nH]1)C(C)C [BMS-790052]		~100 fold	~2 nM	~200 nM
CC(C)(C)[C@H](NC(=O)C(C)(OC(=O)N1CCC1)C1(C)CC1)c1nc(-c2ccc(-c3ccc(-c4c[nH]c([C@@H](NC(=O)C(C)(OC(=O)N5CCC5)C5(C)CC5)C(C)(C)C)n4)cc3)cc2)c[nH]1 (stereo partly shown) [Example Y19a]	most synergistically active of the three			
COC(=O)N1CC(F)(F)CC1(C)C(=O)N[C@H](c1nc2ccc(-c3cnc(-c4ccc5nc([C@@H](NC(=O)C6(C)CC(F)(F)CN6C(=O)OC)C(C)(C)C)[nH]c5c4)cn3)cc2[nH]1)C(C)(C)C (stereo partly shown) [Example Y20]	most synergistically active of the three			
